Our source for the Dmax values is EP4772505A1, “COMPOUND FOR DEGRADING ANDROGEN RECEPTOR AND MEDICAL USE THEREOF” (Ubix Therapeutics, Inc., priority 2023, dated 2025).

Read-outs that look alike come from different tables or passages of the source.

The experiment concerns the target T1, Androgen Receptor (AR) (Homo sapiens, UniProt P10275, T878A).
T1 construct: endogenous in cells; host or cells: LNCaP
T1 sequence (P10275 1-920 T878A): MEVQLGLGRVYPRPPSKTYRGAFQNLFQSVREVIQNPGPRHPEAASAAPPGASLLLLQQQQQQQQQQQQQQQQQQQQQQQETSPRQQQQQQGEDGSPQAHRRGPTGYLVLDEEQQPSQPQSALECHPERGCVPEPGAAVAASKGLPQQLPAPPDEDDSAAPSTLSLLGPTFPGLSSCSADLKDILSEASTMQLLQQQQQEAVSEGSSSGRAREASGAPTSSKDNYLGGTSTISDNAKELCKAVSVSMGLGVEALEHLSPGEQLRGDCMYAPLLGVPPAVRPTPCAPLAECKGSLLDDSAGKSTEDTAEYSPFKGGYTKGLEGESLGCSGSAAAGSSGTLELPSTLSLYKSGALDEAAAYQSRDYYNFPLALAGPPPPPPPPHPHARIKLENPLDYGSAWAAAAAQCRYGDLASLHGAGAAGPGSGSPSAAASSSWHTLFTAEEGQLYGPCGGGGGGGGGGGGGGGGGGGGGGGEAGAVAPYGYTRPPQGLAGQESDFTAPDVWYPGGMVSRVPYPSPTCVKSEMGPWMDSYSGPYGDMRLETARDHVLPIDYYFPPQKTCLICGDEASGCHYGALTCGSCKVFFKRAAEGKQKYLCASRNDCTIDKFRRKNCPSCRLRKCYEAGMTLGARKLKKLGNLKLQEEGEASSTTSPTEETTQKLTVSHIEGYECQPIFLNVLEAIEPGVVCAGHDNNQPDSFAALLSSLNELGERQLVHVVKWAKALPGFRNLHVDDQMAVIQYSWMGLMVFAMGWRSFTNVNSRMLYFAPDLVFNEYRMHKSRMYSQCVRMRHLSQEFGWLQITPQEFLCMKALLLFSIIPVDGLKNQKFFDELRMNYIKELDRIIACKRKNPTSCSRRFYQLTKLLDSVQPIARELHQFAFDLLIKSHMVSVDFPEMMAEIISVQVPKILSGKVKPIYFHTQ
In words: Measurement of AR protein degradation in LNCaP cells by Western blotting. It counts as cell-based. The following applies: read-out: AR degradation in LNCaP cells (%). The method, then: The amount of AR protein present in LNCaP or VCaP cells was measured after treating them with the synthesized compound. The amount of AR protein was measured using Western blotting. The protocol for the experiments using LNCaP or VCaP cells was as follows.
[Culture] LNCaP cells were resuspended in RPMI1640 medium + HEPES (Hyclone, SH30255.01), 10% FBS (Hyclone, SV30207.02), and 1% Penicillin-streptomycin (Welgene, LS 202-02). 3 x 10^5 cells/mL were seeded in 12-well plates (1 mL per well) and cultured for 3 days. VCaP cells were resuspended in IMDM MEDIUM (Hyclone, SH30228.01), 20% FBS (Hyclone, SV30207.02), and 1% Penicillin-streptomycin (Welgene, LS 202-02), seeded at 9 x 10^5/mL in 1 mL per 12-well plate, and cultured for 3 days.
[Compound Treatment] 10 µL of 100x stock (e.g., 0.1, 1, 10 µM) compound solution at the final compound treatment concentration (e.g., 0.001, 0.01, 0.1 µM) was added to each well in 1 mL media, and cells were harvested after 20 hours. For DC50 measurement, 100x stock (0.01, 0.1, 1, 10, 100, 1000 µM) compound solutions at the final compound treatment concentration (0.0001, 0.001, 0.01, 0.1, 1, 10 µM) were used.
[Cell lysis] The cell pellet was suspended using 1% SDS lysis buffer (50 mM Tris, 1 mM EDTA, 1% SDS, pH 8.0, 0.5 mM PMSF, 1x Protease/Phosphatase inhibitor Cocktail (Cell Signaling Technology, 5872S)), and sonication (70% AMP, 10 cycles (30 sec ON/59 sec OFF)) was performed. After centrifugation at 4°C and 20,000 g for 20 minutes, the cell lysate was obtained and transferred to a new tube.
[Protein Quantification] A BCA protein assay (SMART™ BCA Protein Assay Kit, iNtRON Biotechnology, 21071) was performed using a 96-well microplate. 5 µL of cell lysate and 5 µL of 1% SDS lysis buffer were added to each well of the 96-well plate, followed by an additional 200 µL of BCA reagent (Reagent A: Reagent B = 50:1). The wells were incubated at 37°C for 30 minutes and cooled to room temperature for 10 minutes. After shaking for 10 seconds, the absorbance was measured at a wavelength of 562 nm. The unknown protein concentration was determined using a BSA standard curve (0, 0.125, 0.25, 0.5, 1, 2 mg/mL). Western blotting samples were prepared by mixing cell lysate, 1% SDS lysis buffer, 4x NuPAGE™ LDS Sample buffer (Invitrogen, NP0008), and 10X NuPAGE™ Sample Reducing Agent (Invitrogen, NP0009) and boiling at 70°C for 10 minutes.
[Electrophoresis] 10 µg of protein sample was loaded into each well of a NuPAGE™ 4 to 12%, Bis-Tris, 1.0 mm Mini Protein Gel, 15-well, 17-well, or 26-well (Invitrogen, NP0323BOX, NP0329BOX, or WG1403BOX) and electrophoresed for 40 minutes using NuPAGE™MES SDS Running Buffer (Invitrogen, NP0002) at 200 V (constant V).
[Transfer] Transfer was performed for 15 or 18 minutes using the electrophoresed gel and the Trans-Blot® Turbo™ Transfer Starter System (Bio-RAD, #17001918, Mini Nitrocellulose) at 1.3 A (constant A) and 25 V (limit V). To confirm protein transfer, 15 mL of Ponceau S solution (Sigma, P7170-1L) was used to stain for 1 minute, and then washed to check the degree of transfer.
[Blocking] The membrane for AR and GAPDH detection was blocked with 5% skim milk/0.2% TBST (Skim milk: BD, 232100/ 20X TBS: Biosesang, TR2008-100-00/ 10% Tween 20 Solution: Bio-RAD, #161-0781) for 45 minutes.
[Antibodies and Detection] Primary AR antibody (Androgen Receptor: CST, 5153S) was mixed with 5% skim milk/0.2% TBST at a ratio of 1:1,000 and reacted at room temperature for 3 hours or at 4°C overnight. Primary GAPDH antibody (CST, 2118S) was mixed with 5% skim milk/0.2% TBST at a ratio of 1:2,000 and reacted at room temperature for 3 hours or at 4°C overnight. Afterwards, TBST (0.2% Tween 20) was used for washing three times every 5 minutes. Secondary antibody to AR antibody, Anti-rabbit IgG, HRP-linked Antibody (CST, 7074S), was mixed with 5% skim milk/0.2% TBST at a ratio of 1:5,000 and reacted at room temperature for 45 minutes. […]
On the technique in general: Immunoblotting shows a protein as a band on a membrane.

Consider `COc1cc(N2CCC(C(=O)Nc3ccc(OC4CCN(CC5CCN(c6ccc(NC7CCC(=O)NC7=O)cc6F)CC5)CC4)nn3)CC2)ccc1C#N` (stereo not shown) [Example 16, 1-(4-cyano-3-methoxyphenyl)-N-(6-((1-((1-(4-((2,6-dioxopiperidin-3-yl)amino)-2-fluorophenyl)piperidin-4-yl)methyl)piperidin-4-yl)oxy)pyridazin-3-yl)piperidine-4-carboxamide], for which, under “10 nM compound, 20 hours, LNCaP cells”, the Dmax at 0.01 µM came out at 93%. Further, the Dmax at 0.1 µM (100 nM compound, 20 hours, LNCaP cells) was 98%.
As to `N#Cc1ccc(N2CCC(C(=O)Nc3ccc(OC4CCN(CC5CCN(c6ccc(NC7CCC(=O)NC7=O)cc6Cl)CC5)CC4)cn3)CC2)cc1C(F)(F)F` (stereo not shown) [Example 17, N-(5-((1-((1-(2-chloro-4-((2,6-dioxopiperidin-3-yl)amino)phenyl)piperidin-4-yl)methyl)piperidin-4-yl)oxy)pyridin-2-yl)-1-(4-cyano-3-(trifluoromethyl)phenyl)piperidine-4-carboxamide], where the note is “LNCaP, 20 h”, the Dmax at 0.01 µM was found to be 77% and the Dmax at 0.1 µM is 99%.
